Experimental data published in PubChem BioAssay (NCI).
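Compound exposure: 48 hours, 5 concentrations, 96-well plates. TGI is the concentration that stops growth completely.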

What was measured:
Assay in all cases: NCI anticancer screen, dose series, 48 h
[1] = test system: A498 renal
[2] = test system: COLO 205 colon
[3] = test system: HCT-116 colon
[4] = test system: K-562 leukemia
[5] = test system: KM12 colon
[6] = test system: MCF7 breast
[7] = test system: MDA-MB-231 breast
[8] = test system: MDA-N
[9] = test system: NCI-H522 lung
[10] = test system: OVCAR-4 ovarian
[11] = test system: OVCAR-8 ovarian
[12] = test system: RPMI-8226 leukemia
[13] = test system: RXF 393 renal
[14] = test system: SF-268 CNS
[15] = test system: SF-539 CNS
[16] = test system: SK-MEL-28 melanoma
[17] = test system: SK-OV-3 ovarian
[18] = test system: SN12C renal
[19] = test system: SNB-19 CNS
[20] = test system: UACC-257 melanoma

Compound: CC(C)(C)c1cc2c(c(C(C)(C)C)c1O)CC(=O)O2
- TGI [1]: 94.7 µM
- TGI [2]: 37.6 µM
- TGI [3]: > 100 µM
- TGI [4]: > 100 µM
- TGI [5]: 64.6 µM
- TGI [6]: > 100 µM
- TGI [7]: 75.4 µM
- TGI [8]: > 100 µM
- TGI [9]: > 100 µM
- TGI [10]: > 100 µM
- TGI [11]: > 100 µM
- TGI [12]: 65 µM
- TGI [13]: 54.5 µM
- TGI [14]: > 100 µM
- TGI [15]: 62.5 µM
- TGI [16]: > 100 µM
- TGI [17]: > 100 µM
- TGI [18]: > 100 µM
- TGI [19]: > 100 µM
- TGI [20]: 75.7 µM

Compound: Cc1ccc(/C=C2/N=C(N/N=C\C(O)C(O)C(O)CO)NC2=O)cc1 (stereo not given)
- TGI [1]: > 100 µM
- TGI [2]: > 100 µM
- TGI [3]: > 100 µM
- TGI [4]: > 100 µM
- TGI [5]: > 100 µM
- TGI [6]: > 100 µM
- TGI [7]: > 100 µM
- TGI [8]: > 100 µM
- TGI [9]: > 100 µM
- TGI [10]: > 100 µM
- TGI [11]: > 100 µM
- TGI [12]: > 100 µM
- TGI [13]: > 100 µM
- TGI [14]: > 100 µM
- TGI [15]: > 100 µM
- TGI [16]: > 100 µM
- TGI [17]: > 100 µM
- TGI [18]: > 100 µM
- TGI [19]: > 100 µM
- TGI [20]: > 100 µM

Compound: COC(=O)CN(CC(O)C(NC(C)=O)C(O)C=O)C(=O)OCc1ccccc1 (stereo not given)
- TGI [1]: > 100 µM
- TGI [2]: > 100 µM
- TGI [3]: > 100 µM
- TGI [4]: > 100 µM
- TGI [5]: > 100 µM
- TGI [6]: > 100 µM
- TGI [7]: > 100 µM
- TGI [8]: > 100 µM
- TGI [9]: > 100 µM
- TGI [10]: > 100 µM
- TGI [11]: > 100 µM
- TGI [12]: > 100 µM
- TGI [13]: > 100 µM
- TGI [14]: > 100 µM
- TGI [15]: > 100 µM
- TGI [16]: > 100 µM
- TGI [17]: > 100 µM
- TGI [18]: > 100 µM
- TGI [19]: > 100 µM
- TGI [20]: > 100 µM

Compound: O=C(O)CCO/N=C1/C(c2c(O)[nH]c3ccccc23)=Nc2ccccc21
- TGI [1]: 74.2 µM
- TGI [2]: 35.1 µM
- TGI [3]: 34.8 µM
- TGI [4]: > 100 µM
- TGI [5]: 38.9 µM
- TGI [6]: > 100 µM
- TGI [7]: > 100 µM
- TGI [8]: > 100 µM
- TGI [9]: > 100 µM
- TGI [10]: > 100 µM
- TGI [11]: > 100 µM
- TGI [12]: > 100 µM
- TGI [13]: 17.5 µM
- TGI [14]: > 100 µM
- TGI [15]: > 100 µM
- TGI [16]: > 100 µM
- TGI [17]: 21.1 µM
- TGI [18]: > 100 µM
- TGI [19]: > 100 µM
- TGI [20]: > 100 µM

Compound: COC(=O)C1CCC(=O)N1CN(C(C)=O)c1cc(OC)ccc1OC (stereo not given)
- TGI [1]: > 100 µM
- TGI [2]: > 100 µM
- TGI [3]: > 100 µM
- TGI [4]: > 100 µM
- TGI [5]: > 100 µM
- TGI [6]: > 100 µM
- TGI [7]: > 100 µM
- TGI [8]: > 100 µM
- TGI [9]: > 100 µM
- TGI [10]: > 100 µM
- TGI [11]: > 100 µM
- TGI [12]: > 100 µM
- TGI [13]: > 100 µM
- TGI [14]: > 100 µM
- TGI [15]: > 100 µM
- TGI [16]: > 100 µM
- TGI [17]: > 100 µM
- TGI [18]: > 100 µM
- TGI [19]: > 100 µM
- TGI [20]: > 100 µM
